# According to US9705096B2, “Organic transistor, compound, organic semiconductor material for non-light-emitting organic semiconductor device, material for organic transistor, coating solution for non-light-emitting organic semiconductor device, organic semiconductor film for non-light-emitting organic semiconductor device, …” (FUJIFILM Corporation, priority 2014, dated 2017):
# Assay: Solubility in toluene
# Format: physicochemical
# Conditions: organic solvent or mixture, thermodynamic from solid; 20 mg compound mixed with toluene (1 mL)
# From the text: A: The compound was completely dissolved.
# B: A bit of the compound was left undissolved.
# C: Most of the compound was left undissolved.
row,solubility,SMILES
1,< 20 mg/mL,"CCc1cc2sc3cc4sc5cc(CC)sc5c4cc3c2s1 [Comparative compound 1, reference compound]"
2,> 20 mg/mL,CC(C)CCCC(C)CCc1cc2sc3cc4sc5cc(CCC(C)CCCC(C)C)sc5c4cc3c2s1 (stereo not drawn) [Compound 31]
3,> 20 mg/mL,CC(C)CCCC(C)CCc1ccc(-c2cc3sc4cc5sc6cc(-c7ccc(CCC(C)CCCC(C)C)s7)sc6c5cc4c3s2)s1 (stereo not drawn) [Compound 33]
